{
  "source": "patent US11932598B2",
  "about": "“Polyacyloxymethyl-4,4′-acyloxybiphenyl compound” (HONSHU CHEMICAL INDUSTRY CO., LTD., priority 2018, dated 2024)",
  "key": {"[1]": {"assay": "Solvent solubility evaluation test (amount dissolved in 100 g of cyclohexanone)", "format": "physicochemical", "description": "<Solvent Solubility Evaluation Test>\nThe 4,4′-Diacetoxy-3,3′,5,5′-tetra(acetoxymethyl)biphenyl obtained in Example 1 (hereinafter referred to as “Present Compound A”) and 4,4′-di(acetoxy)biphenyl (hereinafter referred to as “Comparative Compound a”) were measured for the amounts dissolved in 100 g of cyclohexanone at 40° C. and 60° C. (hereinunder referred to as “solubility (g)”)."}, "[2]": {"conditions": "amount dissolved in 100 g of cyclohexanone at 40° C."}, "[3]": {"conditions": "amount dissolved in 100 g of cyclohexanone at 60° C."}},
  "data": [
    {"compound": "CC(=O)Oc1ccc(-c2ccc(OC(C)=O)cc2)cc1", "note": "[Comparative Compound a, 4,4′-di(acetoxy)biphenyl, reference compound]", "values": [
      {"measurement": "Solubility", "setting": "[1]; [2]", "result": 9.0, "unit": "g"},
      {"measurement": "Solubility", "setting": "[1]; [3]", "result": 12.8, "unit": "g"}
    ]},
    {"compound": "CC(=O)OCc1cc(-c2cc(COC(C)=O)c(OC(C)=O)c(COC(C)=O)c2)cc(COC(C)=O)c1OC(C)=O", "note": "[Present Compound A, 4,4′-Diacetoxy-3,3′,5,5′-tetra(acetoxymethyl)biphenyl]", "values": [
      {"measurement": "Solubility", "setting": "[1]; [2]", "result": 39.4, "unit": "g"},
      {"measurement": "Solubility", "setting": "[1]; [3]", "result": 89.8, "unit": "g"},
      {"measurement": "melting point", "result": 116.2, "unit": "°C"}
    ]}
  ]
}
